Active and inactive are the calls of the source. The calls are words filed in the database; no cut-off is given here.
Columns and labels:
[1] = Antioxidant activity assessed as inhibition of superoxide radical anion formation at 0.1 mM; assay type: functional
Liver microsomes [2] = experiment: Antioxidant activity in rat liver microsomes assessed as inhibition of ethoxyresorufin O-deethylase activity at 1000 uM; assay type: functional; conditions: Microsome
Liver microsomes [3] = experiment: Antioxidant activity in rat liver microsomes assessed as inhibition of ethoxyresorufin O-deethylase activity; assay type: functional, Microsome
[4] = system: Radical scavenging activity; experiment: Antioxidant activity assessed as DPPH free radical scavenging activity after 30 mins; assay type: functional
Liver microsomes [5] = experiment: Antioxidant activity in albino Wistar rat liver microsomes assessed as inhibition of NADPH-dependent lipid peroxidation at 1000 uM; assay type: functional; conditions: Microsome

Work on `CNC(=S)NNC(=O)Cn1c(-c2ccc(OC)c(OC)c2)nc2cc(Cl)c(Cl)cc21` yielded an inhibition [1] of 26%, an Activity (Liver microsomes [2]) of 12.3 pmol/mg/min and an inhibition (Liver microsomes [2]) of 70%. The IC50 (Liver microsomes [3]) was 840 µM, the IC50 [4] was 55 µM and the Activity (Liver microsomes [5]) was 14.8 nmol/mg/min.

Compound `O=C(Cn1c(-c2ccncc2)nc2ccccc21)NNC(=S)Nc1ccccc1` has an IC50 [4] of 13 µM.

Compound `CNC(=S)NNC(=O)Cn1c(-c2ccccc2)nc2ccccc21` has an inhibition [1] of 22%, an Activity (Liver microsomes [2]) of 51 pmol/mg/min and an IC50 [4] of 26 µM. The Activity (Liver microsomes [5]) was 19.2 nmol/mg/min.

For `COc1ccc(-c2nc3ccccc3n2Cc2n[nH]c(=S)n2C)cc1`, the inhibition [1] was 5%, the Activity (Liver microsomes [2]) was 15.8 pmol/mg/min and the IC50 [4] was 140 µM. It also gave an Activity (Liver microsomes [5]) of 23.1 nmol/mg/min.

Compound `CNC(=S)NNC(=O)Cn1c(-c2ccc(OCc3ccccc3)cc2)nc2ccccc21` has an inhibition [1] of 5%, an Activity (Liver microsomes [2]) of 28.6 pmol/mg/min and an IC50 [4] of 74 µM. For the same compound, the Activity (Liver microsomes [5]) was 96.6 nmol/mg/min.

For `CNc1nnc(Cn2c(-c3ccc(OC)cc3)nc3ccccc32)s1`, the inhibition [1] was 5%, the Activity (Liver microsomes [2]) was 34.3 pmol/mg/min and the IC50 [4] was greater than 1000 µM. It also gave an Activity (Liver microsomes [5]) of 14.4 nmol/mg/min and an inhibition (Liver microsomes [5]) of 11%.

Work on `COc1ccc(NC(=S)NNC(=O)Cn2c(-c3ccncc3)nc3ccccc32)cc1` yielded an IC50 [4] of 12 µM.

`CNC(=S)NNC(=O)Cn1c(-c2ccc(Cl)cc2)nc2ccccc21` showed an inhibition [1] of 38%, an Activity (Liver microsomes [2]) of 28.3 pmol/mg/min and an IC50 [4] of 30 µM. For the same compound, the Activity (Liver microsomes [5]) was 13.1 nmol/mg/min and the inhibition (Liver microsomes [5]) was 20%.

For `COc1ccc(-c2nc3cc(Cl)c(Cl)cc3n2Cc2n[nH]c(=S)n2C)cc1OC`, the Activity [1] was “inactive”, the Activity (Liver microsomes [2]) was 18.3 pmol/mg/min and the IC50 [4] was 271 µM. For the same compound, the Activity (Liver microsomes [5]) was 27.5 nmol/mg/min.

`CNc1nnc(Cn2c(-c3ccc(Cl)cc3)nc3ccccc32)s1` gave an inhibition [1] of 21%, an Activity (Liver microsomes [2]) of 2.46 pmol/mg/min and an Activity (Liver microsomes [5]) of 16.1 nmol/mg/min.

For `CNc1nnc(Cn2c(-c3ccc(OC)c(OC)c3)nc3cc(Cl)c(Cl)cc32)s1`, the inhibition [1] was 31%, the Activity (Liver microsomes [2]) was 12.2 pmol/mg/min and the inhibition (Liver microsomes [2]) was 66%. The IC50 [4] was greater than 1000 µM, the Activity (Liver microsomes [5]) was 11.8 nmol/mg/min and the inhibition (Liver microsomes [5]) was 28%.

In the case of `Cn1c(Cn2c(-c3ccc(Cl)cc3)nc3ccccc32)n[nH]c1=S`, the Activity [1] is reported as “inactive”, the Activity (Liver microsomes [2]) is reported as 7.89 pmol/mg/min and the inhibition (Liver microsomes [2]) is reported as 81%. The IC50 (Liver microsomes [3]) was 450 µM, the IC50 [4] was 462 µM and the Activity (Liver microsomes [5]) was 26.6 nmol/mg/min.

`Cn1c(=O)c2c(ncn2C)n(C)c1=O` [CAFFEINE] gave an Activity (Liver microsomes [2]) of 8.31 pmol/mg/min, an inhibition (Liver microsomes [2]) of 80% and an IC50 (Liver microsomes [3]) of 520 µM.

Compound `Cc1cc(C(C)(C)C)c(O)c(C(C)(C)C)c1` [BUTYLATED HYDROXYTOLUENE] has an IC50 [4] of 54 µM and an Activity (Liver microsomes [5]) of 5.68 nmol/mg/min.

`CNc1nnc(Cn2c(-c3ccc(O)cc3)nc3ccccc32)s1` showed an inhibition [1] of 5%, an Activity (Liver microsomes [2]) of 36.1 pmol/mg/min and an IC50 [4] greater than 1000 µM. For the same compound, the Activity (Liver microsomes [5]) was 129 nmol/mg/min.

With `CNC(=S)NNC(=O)Cn1c(-c2ccc(OC)cc2)nc2ccccc21` the Activity [1] was “inactive”, the Activity (Liver microsomes [2]) was 34.5 pmol/mg/min and the IC50 [4] was 43 µM. It also gave an Activity (Liver microsomes [5]) of 16.1 nmol/mg/min.

Work on `Cn1c(Cn2c(-c3ccc(OCc4ccccc4)cc3)nc3ccccc32)n[nH]c1=S` yielded an inhibition [1] of 5%, an Activity (Liver microsomes [2]) of 18 pmol/mg/min and an IC50 [4] of 605 µM. For the same compound, the Activity (Liver microsomes [5]) was 69.6 nmol/mg/min.

Reference: ChEMBL document CHEMBL1144752, “Synthesis and antioxidant properties of novel N-methyl-1,3,4-thiadiazol-2-amine and 4-methyl-2H-1,2,4-triazole-3(4H)-thione derivatives of benzimidazole class” (Bioorg Med Chem, 2008)
